Experimental data: ChEMBL document CHEMBL1671687, “Enhancement of biofilm formation by subinhibitory concentrations of macrolides in icaADBC-positive and -negative clinical isolates of Staphylococcus epidermidis” (2010)

Tests used:
Format in all cases: functional
[1] = tested on: Staphylococcus epidermidis; assay: Enhancement of biofilm formation Staphylococcus epidermidis SW029 expressing icaA gene at subinhibitory concentration by microtiter plate assay; set-up: scale not given: the % may be the effect or the level left
[2] = tested on: Staphylococcus epidermidis; assay: Enhancement of biofilm formation Staphylococcus epidermidis SW032 expressing icaA gene at subinhibitory concentration by microtiter plate assay; set-up: scale not given: the % may be the effect or the level left
[3] = tested on: Staphylococcus epidermidis; assay: Enhancement of biofilm formation Staphylococcus epidermidis SW045 expressing icaA gene at subinhibitory concentration by microtiter plate assay; set-up: scale not given: the % may be the effect or the level left
[4] = tested on: Staphylococcus epidermidis; assay: Enhancement of biofilm formation Staphylococcus epidermidis SW058 expressing icaA gene at subinhibitory concentration by microtiter plate assay; set-up: scale not given: the % may be the effect or the level left
[5] = tested on: Staphylococcus epidermidis; assay: Enhancement of biofilm formation Staphylococcus epidermidis SW061 expressing icaA gene at subinhibitory concentration by microtiter plate assay; set-up: scale not given: the % may be the effect or the level left
[6] = tested on: Staphylococcus epidermidis; assay: Enhancement of biofilm formation Staphylococcus epidermidis SW067 expressing icaA gene at subinhibitory concentration by microtiter plate assay; set-up: scale not given: the % may be the effect or the level left
[7] = tested on: Staphylococcus epidermidis; assay: Enhancement of biofilm formation Staphylococcus epidermidis SW085 expressing icaA gene at subinhibitory concentration by microtiter plate assay; set-up: scale not given: the % may be the effect or the level left
[8] = tested on: Staphylococcus epidermidis; assay: Enhancement of biofilm formation Staphylococcus epidermidis SW098 expressing icaA gene at subinhibitory concentration by microtiter plate assay; set-up: scale not given: the % may be the effect or the level left
[9] = tested on: Staphylococcus epidermidis; assay: Enhancement of biofilm formation Staphylococcus epidermidis SW104 expressing icaA gene at subinhibitory concentration by microtiter plate assay; set-up: scale not given: the % may be the effect or the level left
[10] = tested on: Staphylococcus epidermidis; assay: Enhancement of biofilm formation Staphylococcus epidermidis SW126 expressing icaA gene at subinhibitory concentration by microtiter plate assay; set-up: scale not given: the % may be the effect or the level left
[11] = tested on: Staphylococcus epidermidis; assay: Enhancement of biofilm formation Staphylococcus epidermidis SW015 at subinhibitory concentration by microtiter plate assay; set-up: scale not given: the % may be the effect or the level left
[12] = tested on: Staphylococcus epidermidis; assay: Enhancement of biofilm formation Staphylococcus epidermidis SW021 at subinhibitory concentration by microtiter plate assay; set-up: scale not given: the % may be the effect or the level left
[13] = tested on: Staphylococcus epidermidis; assay: Enhancement of biofilm formation Staphylococcus epidermidis SW036 at subinhibitory concentration by microtiter plate assay; set-up: scale not given: the % may be the effect or the level left
[14] = tested on: Staphylococcus epidermidis; assay: Enhancement of biofilm formation Staphylococcus epidermidis SW070 at subinhibitory concentration by microtiter plate assay; set-up: scale not given: the % may be the effect or the level left
[15] = tested on: Staphylococcus epidermidis; assay: Enhancement of biofilm formation Staphylococcus epidermidis SW071 at subinhibitory concentration by microtiter plate assay; set-up: scale not given: the % may be the effect or the level left
[16] = tested on: Staphylococcus epidermidis; assay: Enhancement of biofilm formation Staphylococcus epidermidis SW082 at subinhibitory concentration by microtiter plate assay; set-up: scale not given: the % may be the effect or the level left
[17] = tested on: Staphylococcus epidermidis; assay: Enhancement of biofilm formation Staphylococcus epidermidis SW088 at subinhibitory concentration by microtiter plate assay; set-up: scale not given: the % may be the effect or the level left
[18] = tested on: Staphylococcus epidermidis; assay: Enhancement of biofilm formation Staphylococcus epidermidis SW099 at subinhibitory concentration by microtiter plate assay; set-up: scale not given: the % may be the effect or the level left
[19] = tested on: Staphylococcus epidermidis; assay: Enhancement of biofilm formation Staphylococcus epidermidis SW115 at subinhibitory concentration by microtiter plate assay; set-up: scale not given: the % may be the effect or the level left
[20] = tested on: Staphylococcus epidermidis; assay: Enhancement of biofilm formation Staphylococcus epidermidis SW120 at subinhibitory concentration by microtiter plate assay; set-up: scale not given: the % may be the effect or the level left
[21] = tested on: Staphylococcus epidermidis; assay: Antimicrobial activity against Staphylococcus epidermidis SW029 expressing icaA gene
[22] = tested on: Staphylococcus epidermidis; assay: Antimicrobial activity against Staphylococcus epidermidis SW036
[23] = tested on: Staphylococcus epidermidis; assay: Antimicrobial activity against Staphylococcus epidermidis SW027 expressing icaA gene assessed as enhancement of biofilm formation at subinhibitory concentration by microtiter plate assay; set-up: scale not given: the % may be the effect or the level left
[24] = tested on: Staphylococcus epidermidis; assay: Enhancement of biofilm formation Staphylococcus epidermidis ATCC 35984 expressing icaA gene at subinhibitory concentration by microtiter plate assay; set-up: scale not given: the % may be the effect or the level left

- MIC [21]: > 128 µg/mL
- MIC [22]: > 128 µg/mL
SMILES: CC[C@H]1OC(=O)[C@H](C)[C@@H](O[C@H]2C[C@@](C)(OC)[C@@H](O)[C@H](C)O2)[C@H](C)[C@@H](O[C@@H]2O[C@H](C)C[C@H](N(C)C)[C@H]2O)[C@](C)(O)C[C@@H](C)CN(C)[C@H](C)[C@@H](O)[C@]1(C)O [AZITHROMYCIN]
- Activity [1]: 157.9%
- Activity [2]: 71.8%
- Activity [3]: 33.4%
- Activity [4]: 37.6%
- Activity [5]: 58.4%
- Activity [6]: 128.8%
- Activity [7]: 298.3%
- Activity [8]: 104%
- Activity [9]: 48.1%
- Activity [10]: 56.4%
- Activity [11]: 57.3%
- Activity [12]: 39.8%
- Activity [13]: 289.2%
- Activity [14]: 92.3%
- Activity [15]: 277.8%
- Activity [16]: 59.8%
- Activity [17]: 117.2%
- Activity [18]: 47%
- Activity [19]: 184.3%
- Activity [20]: 75.8%
- Activity [23]: 49.1%
- Activity [24]: 2.5%
